Earlier results, collected in paper PMC5655430 (PLoS ONE, 2017).

Tests used:
[1] = test system: glucagon receptor (Gcgr)
Excerpt: (§1) The complex nature of diabetic disorder necessitates use of combination therapies that will not only reduce hyperglycemia, but also correct other elements of diabetes complication, such as dyslipidemia. An increasingly common approach in peptide therapeutics focuses on hybrid peptides that can target two or even three receptors. […] Similar dual agonist peptides, with improved half-life and potency have been rep ...

[2] = test system: glucagon-like peptide 1 receptor (Glp1r)
Excerpt: as §1

Oxyntomodulin
Binding and activation on Gcgr [1]: weak binding and activation | Binding and activation on Glp1r [2]: weak binding and activation
